Measured values reported in patent publication EP1487791B1, “A NOVEL ANTIFUNGAL MOLECULE 2-(3,4-DIMETHYL-2,5-DIHYDRO-1H-PYRROL-2-YL)- METHYLETHYL PENTANOATE” (priority 2002, dated 2003).

How the values were obtained:
[1] = tested on: A.flavus; assay: Microbroth dilution assay; type: cell-based; design: key: +ve if medium appeared clear with out any growth of fungi; -ve if growth was there
Method: (§1) Pathogenic strains of fungi were obtained from the Mycology Department of Vallabhbhai Patel Chest Institute, Delhi. All the strains were grown on Sabouraud dextrose agar at 37°C. The conidia form these cultures were harvested and suspended in Sabouraud maltose broth. The number of conidia was counted using haemocytometer and their number in the suspension was adjusted to as per need of the experiment.
(§2) The antifungal susceptibility of the fungi to various fractions or the purified component was assayed by the microbroth, dilution method (Forthergill A.W. and McGough A.W., 1995, Clin. Microbiol. Procedure Handbook. In Vitro susceptibility Testing of Yeast, 5.15.1-5.15.15). The fungal spores were harvested from 96-h cultures and their number adjusted to 1x10^6 per ml. The Sabouraud Dextrose medium was dissolved in glass double distilled water and autoclaved at 10 psi for 15 min. 90-µl medium was added into the wells of cell culture plates. The different concentrations of the extract, fractions or the purified compound were prepared in duplicate wells and then the wells were inoculated with 10 µl of spore suspension. The plates were incubated at 37°C and examined macroscopically after 48 h for the growth of fungal mycelia. The activity was represented as -ve if growth was there and +ve if medium appeared clear with out any growth of fungi.
(§3) The antifungal susceptibility of the fungi to the purified compound was assayed by the microbroth dilution method. The different concentrations of the purified compound ranging from 21.87 to 350 µg/ml were prepared in duplicate wells by twofold dilution method. The test was done as described above. […] Table 1: Activity of the compound against Aspergillus sp. after 48 hrs.

[2] = tested on: A. niger; assay: Microbroth dilution assay; type: cell-based; design: key: +ve if medium appeared clear with out any growth of fungi; -ve if growth was there
Method: as §1, §2, §3

[3] = tested on: A. fumigatus; assay: Microbroth dilution assay; type: cell-based; design: key: +ve if medium appeared clear with out any growth of fungi; -ve if growth was there
Method: as §1, §2, §3

[4] = tested on: A. fumigatus; assay: In vivo efficacy, survival in mice model of aspergillosis; design: species or system Balb/C mice; details: oral; probit of percent survival against log dose
From the text: In vivo efficacy of the compound against A. fumigatus infection was studied in the Balb/C mice of 6-8 weak of age of either sex, weighing 15-20 g each. The mice model of aspergillosis described by Dixon et al (1989), was used to study the effects of compound on in vivo infection of A. fumigatus.
The animals were housed in the micro-barrier cages on sterile bedding and fed ad libitum water and food. The mice were divided into 6 groups and each group contained 8-10 animals. The mice were infected experimentally with A. fumigatus. Three days prior to infection with conidia, mice were injected subcutaneously with 3 doses (250.0 mg/kg/day) of cortisone acetate in 400.0 µl of PBS. On the infection day, each mouse received 2x10^7 conidia by nasal instillation of a single droplet of conidial suspension. […]
A. fumigatus (190/96) isolate was grown on Sabouraud dextrose agar plates at 37 °C for 4 days. […] The number of conidia, was counted and adjusted to 1x10^8 conidia/ml. The viability of the conidia was determined by plating the dilutions of suspensions on Sabouraud dextrose agar. […]
The animals were housed in properly labeled cages and kept under close watch for weight loss and the mortality. The survival rate over a period of 10 days was calculated and the fungal burden in survivors determined (Clemons and Stevens, 1994). […]

[5] = tested on: A.niger; assay: Disc diffusion assay; type: cell-based; details: 48 hrs
Method: as §1
(§4) The disc diffusion test was performed as per described in the section of details of invention. Amphotericin B 1.25 µg/disc was used in assay as positive control standard drug. Additional discs impregnated with equivalent amount of solvent were also used in the assay as negative controls (Fig: 5). […] Table 2: Antifungal activity of compound by disc diffusion method

[6] = tested on: A. flavus; assay: Disc diffusion assay; type: cell-based; details: Aspergillus flavus, 48 hrs, read-out: Diameter of zone of inhibition
Method: as §1, §4

Structure (SMILES): CCCCC(=O)OC(C)CC1NCC(C)=C1C (stereo not shown) [PC-1, 2-(3,4-dimethyl-2,5-dihydro-1H-pyrrol-2-yl)-1-methylethyl pentanoate]
- Activity against Aspergillus sp. after 48 hrs ([1]; 21.87 µg/ml): -
- Activity against Aspergillus sp. after 48 hrs ([1]; 43.75 µg/ml): -
- Activity against Aspergillus sp. after 48 hrs ([1]; 87.50 µg/ml): +
- Activity against Aspergillus sp. after 48 hrs ([1]; 175.00 µg/ml): +
- Activity against Aspergillus sp. after 48 hrs ([1]; 350.00 µg/ml): +
- Activity against Aspergillus sp. after 48 hrs ([2]; 21.87 µg/ml): -
- Activity against Aspergillus sp. after 48 hrs ([2]; 43.75 µg/ml): -
- Activity against Aspergillus sp. after 48 hrs ([2]; 87.50 µg/ml): +
- Activity against Aspergillus sp. after 48 hrs ([2]; 175.00 µg/ml): +
- Activity against Aspergillus sp. after 48 hrs ([2]; 350.00 µg/ml): +
- Activity against Aspergillus sp. after 48 hrs ([3]; 21.87 µg/ml): -
- Activity against Aspergillus sp. after 48 hrs ([3]; 43.75 µg/ml): -
- Activity against Aspergillus sp. after 48 hrs ([3]; 87.50 µg/ml): +
- Activity against Aspergillus sp. after 48 hrs ([3]; 175.00 µg/ml): +
- Activity against Aspergillus sp. after 48 hrs ([3]; 350.00 µg/ml): +
- ED50 (effective dose required to confer protection in 50% of the animals) [4]: 167.0 mg/kg body weight
- Diameter of zone of inhibition ([5]; 5.0 µg/disc): 6.40 mm
- zone of inhibition at 5 µg/disc ([5]; Aspergillus niger, 5.0 µg/disc, read-out: Diameter of zone of inhibition): 6.4 mm
- zone of inhibition at 10 µg/disc ([5]; Aspergillus niger, 10.0 µg/disc, read-out: Diameter of zone of inhibition): 8.6 mm
- zone of inhibition at 5 µg/disc ([6]; 5.0 µg/disc): 6.15 mm
- zone of inhibition at 10 µg/disc ([6]; 10.0 µg/disc): 8.1 mm
- zone of inhibition at 20 µg/disc ([6]; 20.0 µg/disc): 9 mm
